# From ChEMBL document CHEMBL5634125, “Investigation of novel 5'-amino adenosine derivatives with potential anti-Zika virus activity” (Eur J Med Chem, 2023)
# Activity calls are given as the source filed them. No cut-off for these calls is given here.
# Key:
# Zika virus [1] = assay: Antiviral activity against Zika virus infected in golden hamster BHK cells assessed as inhibition of viral replication incubated for 72 hrs by qRT-PCR analysis; assay type: functional, organism-based; settings: dose 2.5-20 µM
# [2] = Acute toxicity in A129 mouse assessed as animal death at 200 mg/kg, po measured after 2 weeks; assay type: organism-based; settings: in vivo, 336 h
# [3] = Acute toxicity in A129 mouse assessed as animal death at 100 mg/kg, po measured after 2 weeks; assay type: organism-based; settings: in vivo, 336 h
# Zika virus [4] = assay: Antiviral activity against Zika virus infected in golden hamster BHK cells assessed as inhibition of viral protein production incubated for 72 hrs by Western blot analysis; assay type: functional, organism-based; settings: dose 2.5-20 µM
# Zika virus [5] = assay: Antiviral activity against Zika virus infected in Ifnar-/- A129 mouse assessed as reduction in viral RNA in serum at 10 mg/kg, ip administered twice daily for 4 days by qRT-PCR analysis; assay type: functional, organism-based; settings: time 4.0 day
# Zika virus [6] = assay: Antiviral activity against Zika virus SMGC-1 infected in ICR mouse assessed as survival at 10 mg/kg, ip pre-infected with virus for 4 hrs followed by once daily compound administration for 9 days and measured after 24 days relative to control; assay type: functional; settings: SMGC-1, 576 h, time 24 day
# Zika virus [7] = assay: Antiviral activity against Zika virus SMGC-1 infected in ICR mouse assessed as increase in body weight at 10 mg/kg, ip pre-infected with virus for 4 hrs followed by once daily compound administration for 9 days and measured at 14 to 24 days; assay type: functional, organism-based; settings: time 14-24 day
# NS5 (Zika virus) = NS5 (Zika virus) (UniProt A0A143MHK7); assay: Binding affinity to Zika virus RdRp by SPR analysis; settings: dose 1.56-25 µM
# Zika virus [8] = assay: Inhibition of Zika virus NS5-RdRp at 50 uM preincubated for 20 mins followed by ATP addition and measured after 60 mins by fluorescence based assay relative to control; settings: time 80.0 min
# Dengue virus [9] = assay: Antiviral activity against Dengue virus assessed as inhibition of viral RNA production at stage III; assay type: functional, organism-based
# Zika virus [10] = assay: Antiviral activity against Zika virus infected in U87 cells assessed as suppression of CXCL11 expression at 10 uM by KEGG enrichment analysis; assay type: functional, organism-based
# Zika virus [11] = assay: Antiviral activity against Zika virus infected in golden hamster BHK-21 cells assessed as inhibition of viral replication incubated for 72 hrs by Dual-luciferase reporter assay system; assay type: functional, organism-based; settings: BHK-21, 72 h
# [12] = Tmax in ICR mouse at 25 mg/kg, po administered as single dose and measured upto 24 hrs by LC-MS/MS analysis; assay type: ADME, organism-based; settings: in vivo
# Zika virus [13] = assay: Antiviral activity against Zika virus SMGC-1 infected in ICR mouse assessed as survival at 1 mg/kg, ip pre-infected with virus for 4 hrs followed by once daily compound administration for 9 days and measured after 24 days relative to control; assay type: functional; settings: SMGC-1, 576 h, time 24 day
# Zika virus [14] = assay: Inhibition of Zika virus NS2B-NS3 protease using Bz-Nle-Lys-Lys-Arg-AMC as substrate at 1.25 to 200 uM preincubated for 30 mins followed by substrate addition and measured after 20 mins by Real-time fluorescence based analysis; settings: dose 1.25-200 µM, time 50.0 min
# Zika virus [15] = assay: Inhibition of Zika virus NS5-RdRp at 12.5 uM preincubated for 20 mins followed by ATP addition and measured after 60 mins by fluorescence based assay relative to control; settings: time 80.0 min
# [16] = Cmax in ICR mouse at 25 mg/kg, po administered as single dose and measured upto 24 hrs by LC-MS/MS analysis; assay type: ADME, organism-based; settings: in vivo
# Zika virus [17] = assay: Antiviral activity against Zika virus infected in golden hamster BHK cells assessed as inhibition of virus induced cytopathic effect incubated for 6 to 8 days by CellTiter-Glo luminescent cell viability assay; assay type: functional, organism-based
# [18] = AUC (0 to t) in ICR mouse at 25 mg/kg, po administered as single dose and measured upto 24 hrs by LC-MS/MS analysis; assay type: ADME, organism-based; settings: in vivo
# U-87MG ATCC [19] = assay: Effect on CXCL8 expression in human U87 cells infected with Zika virus at 10 uM by KEGG enrichment analysis; assay type: functional, cell-based
# Zika virus [20] = assay: Inhibition of Zika virus NS5-RdRp preincubated for 20 mins followed by ATP addition and measured after 60 mins by fluorescence based assay; settings: dose 3.13-50 µM, time 80.0 min
# [21] = Inhibition of Zika virus NS5 transfected in HEK293T cells co-transfected with GLuc reporter plasmid incubated for 24 hrs by GLuc reporter assay; assay type: cell-based; settings: HEK-293T
# Zika virus [22] = assay: Antiviral activity against Zika virus infected in golden hamster BHK cells assessed as inhibition of viral RNA production at stage IV pre-infected with virus for 2 hrs followed by compound addition and measured 24 hrs post infection by qRT-PCR analysis; assay type: functional, organism-based; settings: time 22.0 hrs
# Zika virus [23] = assay: Antiviral activity against Zika virus infected in golden hamster BHK cells assessed as reduction in infectious viral propagation incubated for 72 hrs by plaque reduction assay; assay type: functional, organism-based; settings: dose 2.5-20 µM
# [24] = MRT in ICR mouse at 25 mg/kg, po administered as single dose and measured upto 24 hrs by LC-MS/MS analysis; assay type: ADME, organism-based; settings: in vivo
# Zika virus [25] = assay: Inhibition of Zika virus NS5 MTase activity at 50 uM by chemiluminescence-based enzymatic assay system relative to control
# [26] = Acute toxicity in A129 mouse assessed as animal death at 50 mg/kg, po measured after 2 weeks; assay type: organism-based; settings: in vivo, 336 h
# Dengue virus [27] = assay: Antiviral activity against Dengue virus assessed as inhibition of viral RNA production at stage IV; assay type: functional, organism-based
# [28] = Acute toxicity in po dosed ICR mouse assessed as lethal dose measured after 2 weeks; assay type: organism-based; settings: in vivo
# Zika virus [29] = assay: Antiviral activity against Zika virus infected in infected in golden hamster BHK cells assessed as inhibition of viral RNA production at stage III incubated for 24 hrs by qRT-PCR analysis; assay type: functional, organism-based
# U-87MG ATCC [30] = assay: Effect on CXCL2 expression in human U87 cells infected with Zika virus at 10 uM by KEGG enrichment analysis; assay type: functional, cell-based
# [31] = Half-life in ICR mouse at 25 mg/kg, po administered as single dose and measured upto 24 hrs by LC-MS/MS analysis; assay type: ADME, organism-based; settings: in vivo
# U-87MG ATCC [32] = assay: Effect on CXCL3 expression in human U87 cells infected with Zika virus at 10 uM by KEGG enrichment analysis; assay type: functional, cell-based
smiles,measurement,setting,value
O[C@@H]1[C@H](O)[C@@H](CNCc2ccc(C(F)(F)F)cc2)O[C@H]1n1cnc2c(NCc3cccc(Cl)c3)ncnc21,Activity,Zika virus [1],Dose-Dependent Effect
same,Activity,[2],Non-Toxic
same,Activity,[3],Non-Toxic
same,Activity,Zika virus [4],Dose-Dependent Effect
same,Activity,Zika virus [5],Active
same,survival at 10 mg/kg,Zika virus [6],70%
same,Activity,Zika virus [7],Active
same,Activity,NS5 (Zika virus),Dose-Dependent Effect
same,inhibition,Zika virus [8],62.4%
same,Activity,Dengue virus [9],Active
same,Activity,Zika virus [10],Active
same,IC50,Zika virus [11],5.27 µM
same,Tmax,[12],0.42 h
same,survival at 1 mg/kg,Zika virus [13],30%
same,inhibition,Zika virus [14],inactive
same,inhibition,Zika virus [15],17.5%
same,Cmax,[16],699 ng/mL
same,IC50,Zika virus [17],2.15 µM
same,AUC(0-t) at 24 h,[18],2220 ng·h/mL
same,Activity,U-87MG ATCC [19],inactive
same,inhibition,Zika virus [20],Dose-Dependent Effect
same,IC50,[21],8.78 µM
same,Activity,Zika virus [22],Active
same,Activity,Zika virus [23],Dose-Dependent Effect
same,MRT,[24],3.82 h
same,inhibition,Zika virus [25],20.5%
same,Activity,[26],Non-Toxic
same,Activity,Dengue virus [27],Active
same,LD50 at 336 h,[28],> 200 mg/kg
same,Activity,Zika virus [29],Active
same,Activity,U-87MG ATCC [30],inactive
same,half-life,[31],2.46 h
same,Activity,U-87MG ATCC [32],inactive
